Patent publication US20160256560A1, “Environmentally Sensitive Compositions” (priority 2010, published 2016)
Where two headings read alike, the source gives them in different places. *1 amine or outer side, *2 acyl side, *3 side chain or, on linkers, in order; H or OH if unused. Where a SMILES comes first, the peptide text is derived from it. Bridges are numbered along the chain shown (N, C = ends). Where no end group is shown, it is not given here. [ ]: non-standard residue; d: D form. ξ: configuration not given here. ξTrp(2-yl) = O=C(C(Cc1c([*:3])[nH]c2ccccc12)N[*:1])[*:2]; X1 = CC(O)(CO)CC(N[*:1])C(=O)[*:2]; Hyp = O=C(O)[CH]1C[CH](O)CN1

Assays:
[1] = Solubility / aggregation of pHLIP variants at pH 8
HeLa cells [2] = format: cell-based, human; conditions: 1 uM, pH 6.2, 1.5 h
[3] = format: physicochemical; conditions: absorbance at 300 nm
Protocol: Peptides were labeled at the C-terminal Cys residues using the membrane-impermeable compound maleimide-PEG2-biotin (Thermo Scientific), which has a long polar spacer arm of 29.1 Å that allows adequate biotin binding to avidin. The synthesis reaction was performed in 10 mM phosphate buffer, pH 7.5 (overnight incubation at 4° C.). Reaction products were purified by HPLC, and the mass of the biotin-labeled peptides checked by MALDI-TOF mass spectrometry. The octanol/water partition coefficient of maleimide-PEG2-biotin was determined experimentally by measuring the absorbance at 300 nm in the aqueous and octanol (previously pre-equilibrated with water) phases after a 2 h vortexing. A log P value of −1.07±0.02 was obtained. […] (Kuyper et al., 2006, J. Am. Chem. Soc. 128(10), 3233-40).

[4] = format: in vitro ADME; conditions: pH 6.2
JC cells = conditions: pH 6.1
HeLa cells [5] = test system: HeLa cells
physchem [6] = test: physchem
actin filaments = conditions: read-out: Kd, binding to actin filaments; cited from earlier work
tumor = conditions: in vivo
physchem [7] = test: physchem; remark: listed apart in the source
HeLa cells [8] = format: cell-based, human
GFP fluorescent tumors = conditions: mouse, in vivo
[9] = mouse, in vivo
[10] = Analytical ultracentrifugation, sedimentation velocity; format: physicochemical; conditions: 7 μM, pH 8
[11] = Stopped-flow fluorescence and CD kinetics of insertion/folding and exit/unfolding; format: physicochemical
[12] = molecular target: Rabbit muscle actin, polymerized filamentous actin (F-actin) (rabbit) (UniProt P68135); test: fluorescence anisotropy (ex 570 nm / em 610 nm), separate titration of phallTxR by F-actin without competitor; value for fully bound tracer
[13] = molecular target: Rabbit muscle actin, polymerized filamentous actin (F-actin) (rabbit) (UniProt P68135); test: fluorescence anisotropy (ex 570 nm / em 610 nm), titration of phallTxR by F-actin; value for unbound tracer
[14] = Membrane affinity and insertion kinetics of variants Var1-16; format: physicochemical; conditions: relative to WT pHLIP
HeLa tumors = conditions: mouse, in vivo
[15] = in vivo; cited from earlier work

Q: Which “Notes: solubility” value [1] does the source give for `CC[C@H](C)[C@H](NC(=O)[C@@H]1CCCN1C(=O)[C@H](CC(N)=O)NC(=O)[C@H](CCC(N)=O)NC(=O)[C@H](CCC(=O)O)NC(=O)CNC(=O)CN)C(=O)N[C@@H](Cc1ccc(O)cc1)C(=O)N[C@@H](Cc1c[nH]c2ccccc12)C(=O)N[C@@H](C)C(=O)N[C@@H](CCC(N)=O)C(=O)N[C@@H](Cc1ccc(O)cc1)C(=O)N[C@@H](C)C(=O)N[C@@H](CC(=O)O)C(=O)N[C@@H](Cc1c[nH]c2ccccc12)C(=O)N[C@@H](CC(C)C)C(=O)N[C@@H](Cc1ccccc1)C(=O)N[C@H](C(=O)N[C@H](C(=O)N1CCC[C@H]1C(=O)N[C@@H](CC(C)C)C(=O)N[C@@H](CC(C)C)C(=O)N[C@@H](CC(C)C)C(=O)N[C@@H](CC(C)C)C(=O)N[C@@H](CC(=O)O)C(=O)N[C@@H](CC(C)C)C(=O)N[C@@H](C)C(=O)N[C@@H](CC(C)C)C(=O)N[C@@H](CC(C)C)C(=O)N[C@H](C(=O)N[C@@H](CC(=O)O)C(=O)N[C@@H](C)C(=O)N[C@@H](CC(=O)O)C(=O)N[C@@H](CCC(=O)O)C(=O)NCC(=O)N[C@H](C(=O)N[C@@H](CS)C(=O)NCC(=O)O)[C@@H](C)O)C(C)C)[C@@H](C)O)[C@@H](C)O` [R11Q] here?
A: The value was “Has better solubility”.

Q: Which “cell growth after treatment (ECIS)” value (HeLa cells [2]) does the source give for `CC[C@H](C)[C@@H]1NC(=O)CNC(=O)[C@@H]2Cc3c([nH]c4cc(O)ccc34)[S@+]([O-])C[C@H](NC(=O)CNC1=O)C(=O)N[C@@H](CC(N)=O)C(=O)N1C[C@H](O)C[C@H]1C(=O)N[C@@H]([C@@H](C)[C@@H](O)CO)C(=O)N2` [amanitin, α-amanitin] here?
A: The value was “continue to grow”.

Q: With `O=C(CCCC[C@@H]1SC[C@@H]2NC(=O)N[C@@H]21)NCCOCCOCCNC(=O)CCN1C(=O)C=CC1=O` [maleimide-PEG2-biotin] as the compound, how does the “log P (octanol/water)” value [3] read?
A: The value was −1.07±0.02.

Q: With `CC[C@H](C)[C@H](NC(=O)[C@@H]1CCCN1C(=O)[C@H](CC(N)=O)NC(=O)[C@H](CCC(N)=O)NC(=O)[C@H](CCC(=O)O)NC(=O)[C@H](C)NC(=O)[C@H](C)NC(C)=O)C(=O)N[C@@H](Cc1ccc(O)cc1)C(=O)N[C@@H](Cc1c[nH]c2ccccc12)C(=O)N[C@@H](C)C(=O)N[C@@H](CCCNC(=N)N)C(=O)N[C@@H](Cc1ccc(O)cc1)C(=O)N[C@@H](C)C(=O)N[C@@H](CC(=O)O)C(=O)N[C@@H](Cc1c[nH]c2ccccc12)C(=O)N[C@@H](CC(C)C)C(=O)N[C@@H](Cc1ccccc1)C(=O)N[C@H](C(=O)N[C@H](C(=O)N1CCC[C@H]1C(=O)N[C@@H](CC(C)C)C(=O)N[C@@H](CC(C)C)C(=O)N[C@@H](CC(C)C)C(=O)N[C@@H](CC(C)C)C(=O)N[C@@H](CC(=O)O)C(=O)N[C@@H](CC(C)C)C(=O)N[C@@H](C)C(=O)N[C@@H](CC(C)C)C(=O)N[C@@H](CC(C)C)C(=O)N[C@H](C(=O)N[C@@H](CC(=O)O)C(=O)N[C@@H](C)C(=O)N[C@@H](CC(=O)O)C(=O)N[C@@H](CCC(=O)O)C(=O)NCC(=O)N[C@H](C(=O)N[C@@H](CCCCNC(=O)c1ccc(-c2c3ccc(N(C)C)cc3[o+]c3cc(N(C)C)ccc23)c(C(=O)[O-])c1)C(=O)N[C@@H](CSSCCC(=O)NC[C@](C)(O)C[C@@H]1NC(=O)[C@@H]2Cc3c([nH]c4ccccc34)SC[C@H](NC(=O)[C@@H]([C@H](C)O)NC(=O)[C@H](C)NC1=O)C(=O)N1C[C@@H](O)C[C@H]1C(=O)N[C@@H](C)C(=O)N2)C(=O)NCC(=O)O)[C@@H](C)O)C(C)C)[C@@H](C)O)[C@@H](C)O` [pHLIP-K(rho)C(aph)] as the compound, how does the multinucleation (HeLa or M4A4 cells) read?
A: The multinucleation was “became multinucleated”.

Q: What about the “cytoskeletal immobilization on trypsinization / cytotoxic morphology” value (HeLa or M4A4 cells; pH 6.1) of the same compound?
A: The value was “exhibited a reduced ability to contract”.

Q: What about the “decomposition during cell incubation (HPLC)” value [4] of the same compound?
A: Its value is “no detectable decomposition”.

Q: What about the “inhibition of JC growth” value (JC cells) of the same compound?
A: The value was 78%.

Q: What about the “effect on cell growth” value (HeLa cells [5]; pH 7.4) of the same compound?
A: The value was “did not have any effect on cell growth”.

Q: What about the “inhibition of M4A4 proliferation” value (M4A4 cells; pH 6.2) of the same compound?
A: The value was 92%.

Q: Which results are given for `CC1NC(=O)C(CC(C)(O)CO)NC(=O)C2Cc3c([nH]c4ccccc34)SCC(NC(=O)C(C(C)O)NC1=O)C(=O)N1CC(O)CC1C(=O)NC(C)C(=O)N2` (stereo not drawn) [phalloidin] (cyclo([X1]ATC[Hyp]A[ξTrp(2-yl)]); thioether 4-7; configuration not given here)?
A: logP (physchem [6]): -1.5; Kd (actin filaments): < 40 nM; inhibitory effect on HeLa proliferation (HeLa cells [5]): no inhibitory effect; inhibitory effect on M4A4 proliferation (M4A4 cells): no inhibitory effect

Q: With “AAEQNPIYWARYADWLFTTGLLLLDLALLVDADEGT [P20G]” as the compound, how does the “Findings: biodistribution / blood clearance” value (tumor) read?
A: Its value is “Goes the liver”.

Q: And the pKa (physchem [7])?
A: The pKa was about 6.7.

Q: With “H-GGEQNPIYWARYADWLFTTPLLLLDLALLVDADEGT-OH [pHLIP]” as the compound, how does the “recruitment of anti-DNP antibodies, pH 6.2 versus pH 7.4 (times more)” value (HeLa cells [8]) read?
A: Its value is “not capable of significantly recruiting”.

Q: What about the “toxic effects in mice” value (GFP fluorescent tumors) of the same compound?
A: The value was “did not induce any toxic effects”.

Q: What about the adverse effects [9] of the same compound?
A: The adverse effects was “did not show any adverse effects”.

Q: What about the “pH range over which titration occurs” value of the same compound?
A: The value was about 1 pH unit.

Q: What about the “oligomer share of total population” value [10] of the same compound?
A: The value was about 6%.

Q: And the “interfacial helix formation time” value [11]?
A: The value was 0.1 s.

Q: What about the “inhibitory effect on HeLa proliferation” value (HeLa cells [5]) of the same compound?
A: Its value is “no inhibition of proliferation was observed”.

Q: Which results are given for Texas Red-X phalloidin (peptide)?
A: fluorescence anisotropy [12]: 0.24; fluorescence anisotropy [13]: 0.04

Q: Which “Findings: Inserts into membrane, times faster than WT” value [14] does the source give for “WT-reverse (TEDADVLLALDLLLLPTTFLWDAYRAWYPNQECA)” here?
A: Its value is “Inserts into membrane 10 times”.

Q: Which “amount of gold, Bladder” value (HeLa tumors) does the source give for gold nanoparticles here?
A: The value was 0.010 ± 0.094 % of injected dose per gram of tissue.

Q: What about the “amount of gold, Blood” value (HeLa tumors) of the same compound?
A: Its value is 0.028 ± 0.028 % of injected dose per gram of tissue.

Q: What about the “amount of gold, Heart” value (HeLa tumors) of the same compound?
A: Its value is 0.075 ± 0.010 % of injected dose per gram of tissue.

Q: What about the “amount of gold, Intestine” value (HeLa tumors) of the same compound?
A: Its value is 0.034 ± 0.021 % of injected dose per gram of tissue.

Q: What about the “amount of gold, Kidney” value (HeLa tumors) of the same compound?
A: Its value is 1.561 ± 0.098 % of injected dose per gram of tissue.

Q: What about the “amount of gold, Liver” value (HeLa tumors) of the same compound?
A: The value was 0.082 ± 0.082 % of injected dose per gram of tissue.

Q: What about the “amount of gold, Lung” value (HeLa tumors) of the same compound?
A: The value was 0.119 ± 0.025 % of injected dose per gram of tissue.

Q: And the “amount of gold, Muscle” value (HeLa tumors)?
A: The value was 1.836 ± 0.071 % of injected dose per gram of tissue.

Q: And the “amount of gold, Skin” value (HeLa tumors)?
A: The value was 0.129 ± 0.041 % of injected dose per gram of tissue.

Q: And the “amount of gold, Spleen” value (HeLa tumors)?
A: Its value is 0.097 ± 0.039 % of injected dose per gram of tissue.

Q: And the “amount of gold, Stomach” value (HeLa tumors)?
A: Its value is 0.012-30.011 % of injected dose per gram of tissue.

Q: And the “amount of gold, Bladder” value (HeLa tumors; iv)?
A: Its value is 0.050 ± 0.050 % of injected dose per gram of tissue.

Q: And the “amount of gold, Blood” value (HeLa tumors; iv)?
A: The value was 0.091 ± 0.020 % of injected dose per gram of tissue.

Q: And the “amount of gold, Heart” value (HeLa tumors; iv)?
A: The value was 0.069 ± 0.004 % of injected dose per gram of tissue.

Q: And the “amount of gold, Intestine” value (HeLa tumors; iv)?
A: The value was 0.073 ± 0.002 % of injected dose per gram of tissue.

Q: And the “amount of gold, Kidney” value (HeLa tumors; iv)?
A: The value was 1.206 ± 0.078 % of injected dose per gram of tissue.

Q: What about the “amount of gold, Liver” value (HeLa tumors; iv) of the same compound?
A: Its value is 0.392 ± 0.031 % of injected dose per gram of tissue.

Q: And the “amount of gold, Lung” value (HeLa tumors; iv)?
A: The value was 0.128 ± 0.000 % of injected dose per gram of tissue.

Q: And the “amount of gold, Muscle” value (HeLa tumors; iv)?
A: The value was 0.053 ± 0.005 % of injected dose per gram of tissue.

Q: What about the “amount of gold, Skin” value (HeLa tumors; iv) of the same compound?
A: The value was 0.204 ± 0.029 % of injected dose per gram of tissue.

Q: And the “amount of gold, Spleen” value (HeLa tumors; iv)?
A: Its value is 0.089 ± 0.045 % of injected dose per gram of tissue.

Q: What about the “amount of gold, Stomach” value (HeLa tumors; iv) of the same compound?
A: Its value is 0.081 ± 0.000 % of injected dose per gram of tissue.

Q: And the LD50 [15]?
A: The LD50 was “approximately 3.2 g Au kg^−1”.
